Results from PubChem BioAssay AID1963853 (Molecular Pharmacology Branch, DTP, NCI, 2024).

Tested on: 266295-075-R-J1-PDC spheroid viability
Assay: Anticancer human tumor 266295-075-R-J1-PDC patient-derived head and neck squamous carcinoma cell line growth inhibition [POLQ]
Conditions: spheroids with HUVEC and MSC; for IC50: curve of first compound; for viability, T/C: stronger effect = lower value
Method in brief: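 PDC + HUVEC + MSC complex spheroids; POLQ inhibitors ± partner drugs; top conc. at/near clinical Cmax, else 10 microM (SN-38 1 microM), half-log dilutions; 37 degrees C, 5% CO2.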
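Also: spheroids exposed to compounds for seven days before readout.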

## CC(=O)O[C@H]1C(=O)[C@@]2(C)[C@H]([C@H](OC(=O)c3ccccc3)[C@]3(O)C[C@H](OC(=O)[C@H](O)[C@@H](NC(=O)c4ccccc4)c4ccccc4)C(C)=C1C3(C)C)[C@]1(OC(C)=O)CO[C@@H]1C[C@@H]2O + Nc1ccc(C#CCN(C(=O)Cc2ncc(C(F)(F)F)cc2C(F)(F)F)c2ccc(F)cc2)nn1
Second compound 0.0316 µM
  IC50: > 3 µM
Second compound 0.1 µM
  IC50: > 3 µM
Second compound 0.316 µM
  IC50: > 3 µM
Second compound 1 µM
  IC50: > 3 µM
Second compound 3.16 µM
  IC50: > 3 µM
Second compound 10 µM
  IC50: > 3 µM
Second compound 0.0316 µM, first compound 0.00949 µM
  viability, T/C: 98.3%
Second compound 0.0316 µM, first compound 0.03 µM
  viability, T/C: 78.9%
Second compound 0.0316 µM, first compound 0.0949 µM
  viability, T/C: 73.9%
Second compound 0.0316 µM, first compound 0.3 µM
  viability, T/C: 76%
Second compound 0.0316 µM, first compound 0.949 µM
  viability, T/C: 78.8%
Second compound 0.0316 µM, first compound 3 µM
  viability, T/C: 78.3%
Second compound 0.1 µM, first compound 0.00949 µM
  viability, T/C: 75.6%
Second compound 0.1 µM, first compound 0.03 µM
  viability, T/C: 84%
Second compound 0.1 µM, first compound 0.0949 µM
  viability, T/C: 69.3%
Second compound 0.1 µM, first compound 0.3 µM
  viability, T/C: 69.3%
Second compound 0.1 µM, first compound 0.949 µM
  viability, T/C: 70.7%
Second compound 0.1 µM, first compound 3 µM
  viability, T/C: 71.3%
Second compound 0.316 µM, first compound 0.00949 µM
  viability, T/C: 94.1%
Second compound 0.316 µM, first compound 0.03 µM
  viability, T/C: 82.9%
Second compound 0.316 µM, first compound 0.0949 µM
  viability, T/C: 63.7%
Second compound 0.316 µM, first compound 0.3 µM
  viability, T/C: 55.3%
Second compound 0.316 µM, first compound 0.949 µM
  viability, T/C: 77.5%
Second compound 0.316 µM, first compound 3 µM
  viability, T/C: 61.4%
Second compound 1 µM, first compound 0.00949 µM
  viability, T/C: 81.3%
Second compound 1 µM, first compound 0.03 µM
  viability, T/C: 59.1%
Second compound 1 µM, first compound 0.0949 µM
  viability, T/C: 69%
Second compound 1 µM, first compound 0.3 µM
  viability, T/C: 70.7%
Second compound 1 µM, first compound 0.949 µM
  viability, T/C: 72.7%
Second compound 1 µM, first compound 3 µM
  viability, T/C: 66%
Second compound 3.16 µM, first compound 0.00949 µM
  viability, T/C: 71%
Second compound 3.16 µM, first compound 0.03 µM
  viability, T/C: 80.5%
Second compound 3.16 µM, first compound 0.0949 µM
  viability, T/C: 77.4%
Second compound 3.16 µM, first compound 0.3 µM
  viability, T/C: 62.8%
Second compound 3.16 µM, first compound 0.949 µM
  viability, T/C: 65%
Second compound 3.16 µM, first compound 3 µM
  viability, T/C: 67.4%
Second compound 10 µM, first compound 0.00949 µM
  viability, T/C: 72.4%
Second compound 10 µM, first compound 0.03 µM
  viability, T/C: 74.6%
Second compound 10 µM, first compound 0.0949 µM
  viability, T/C: 63%
Second compound 10 µM, first compound 0.3 µM
  viability, T/C: 71.1%
Second compound 10 µM, first compound 0.949 µM
  viability, T/C: 76.7%
Second compound 10 µM, first compound 3 µM
  viability, T/C: 77.2%

## O=c1[nH]cc(F)c(=O)[nH]1 + Nc1ccc(C#CCN(C(=O)Cc2ncc(C(F)(F)F)cc2C(F)(F)F)c2ccc(F)cc2)nn1
Second compound 0.0316 µM
  IC50: > 10 µM
Second compound 0.1 µM
  IC50: > 10 µM
Second compound 0.316 µM
  IC50: > 10 µM
Second compound 1 µM
  IC50: > 10 µM
Second compound 3.16 µM
  IC50: > 10 µM
Second compound 10 µM
  IC50: > 10 µM
Second compound 0.0316 µM, first compound 0.0316 µM
  viability, T/C: 107%
Second compound 0.0316 µM, first compound 0.1 µM
  viability, T/C: 101%
Second compound 0.0316 µM, first compound 0.316 µM
  viability, T/C: 104%
Second compound 0.0316 µM, first compound 1 µM
  viability, T/C: 109%
Second compound 0.0316 µM, first compound 3.16 µM
  viability, T/C: 102%
Second compound 0.0316 µM, first compound 10 µM
  viability, T/C: 99.5%
Second compound 0.1 µM, first compound 0.0316 µM
  viability, T/C: 85.5%
Second compound 0.1 µM, first compound 0.1 µM
  viability, T/C: 116%
Second compound 0.1 µM, first compound 0.316 µM
  viability, T/C: 84.7%
Second compound 0.1 µM, first compound 1 µM
  viability, T/C: 98%
Second compound 0.1 µM, first compound 3.16 µM
  viability, T/C: 109%
Second compound 0.1 µM, first compound 10 µM
  viability, T/C: 80.2%
Second compound 0.316 µM, first compound 0.0316 µM
  viability, T/C: 102%
Second compound 0.316 µM, first compound 0.1 µM
  viability, T/C: 96.5%
Second compound 0.316 µM, first compound 0.316 µM
  viability, T/C: 83%
Second compound 0.316 µM, first compound 1 µM
  viability, T/C: 89.6%
Second compound 0.316 µM, first compound 3.16 µM
  viability, T/C: 108%
Second compound 0.316 µM, first compound 10 µM
  viability, T/C: 76%
Second compound 1 µM, first compound 0.0316 µM
  viability, T/C: 105%
Second compound 1 µM, first compound 0.1 µM
  viability, T/C: 85.7%
Second compound 1 µM, first compound 0.316 µM
  viability, T/C: 95.6%
Second compound 1 µM, first compound 1 µM
  viability, T/C: 120%
Second compound 1 µM, first compound 3.16 µM
  viability, T/C: 86%
Second compound 1 µM, first compound 10 µM
  viability, T/C: 79.8%
Second compound 3.16 µM, first compound 0.0316 µM
  viability, T/C: 99.9%
Second compound 3.16 µM, first compound 0.1 µM
  viability, T/C: 131%
Second compound 3.16 µM, first compound 0.316 µM
  viability, T/C: 101%
Second compound 3.16 µM, first compound 1 µM
  viability, T/C: 89.3%
Second compound 3.16 µM, first compound 3.16 µM
  viability, T/C: 99.1%
Second compound 3.16 µM, first compound 10 µM
  viability, T/C: 86.9%
Second compound 10 µM, first compound 0.0316 µM
  viability, T/C: 113%
Second compound 10 µM, first compound 0.1 µM
  viability, T/C: 103%
Second compound 10 µM, first compound 0.316 µM
  viability, T/C: 95.8%
Second compound 10 µM, first compound 1 µM
  viability, T/C: 96.3%
Second compound 10 µM, first compound 3.16 µM
  viability, T/C: 88%
Second compound 10 µM, first compound 10 µM
  viability, T/C: 87.1%
